# pKd: −log10 of the molar value. Like-named read-outs stand apart in the source and are kept apart here. Ends that are not written are not given here.
# How the values were obtained:
# Hep3B cells [1] = test: Apparent association time constant on Hep3B cells by flow cytometry; type: binding, human
# Method: The apparent association time constant (k) was also measured for the optimized GPC3 peptide to provide an assessment of how rapidly the peptide binds. The ALL*-Cy5.5 peptide reagent was incubated with Hep3B cells over time intervals ranging from 0 to 40 min. Fluorescence intensities were measured on flow cytometry. The median fluorescence intensity (y) was ratioed with that of Hep3B cells without addition of peptide reagent at different time points (t).
# SK-Hep1 xenograft tumors = test: Immunostaining on GPC3 negative SK-Hep1 xenograft sections; set-up: species or system mice; conditions: no GPC3 expression
# From the text: FIGS. 18A-D show immunostaining on GPC3 negative HCC xenograft tumor.
# The specimens were also sectioned for collection of confocal images to perform microscopic validation of peptide binding ex vivo.
# Hep3B cells [2] = test: Apparent dissociation constant on Hep3B cells by flow cytometry; type: binding, human
# Method: The apparent dissociation constant (kd) was measured for the optimized GPC3 peptide to Hep3B cells to provide an assessment of peptide binding affinity. The ALL*-Cy5.5 peptide reagent was serially diluted in PBS at concentrations ranging from 0 to 200 nM in 25 nM increments and incubated with Hep3B cells. The mean fluorescence intensities was measured on flow cytometry. The equilibrium dissociation constant kd=1/ka was calculated by performing a least squares fit of the data to the non-linear equation I=(I0+Imaxka[X])/([…]). I0and Imax are the initial and maximum fluorescence intensities, corresponding to no peptide and at saturation, respectively, and [X] represents the concentration of the bound peptide.
# HepG2 human HCC cells = test: Confocal microscopy of peptide binding to HepG2 cells; type: cell-based
# Method: FIGS. 6-2A-Q show validation of specific peptide binding to cells in vitro. […] The Hep3B versus SK-Hep1 difference was also larger for antibody than QLE (P=2.3×10^−8, 6.0-fold larger). Intensity was measured with 6 replicates per condition and fitted to an ANOVA model with terms for 9 means to log-transformed data. […] We further validated specific peptide binding to GPC3 using siRNA knockdown. […] Q) Quantified fluorescence intensities. The siCL vs siGPC3 difference was 7.4 times bigger for ALL than the same difference for QLE (P=7.8×10^−5), and the difference for antibody was 8.9 times bigger than for QLE (P=2.5×10^−5), by ANOVA on log-transformed data. Results are an average of 6 images collected independently.
# On confocal microscopy, it was shown that ALL*-Cy5.5 binds to the surface (arrows) of cells with different levels of GPC3 expression. […] GPC3 is highly overexpressed in Hep3B cell cytosol and membrane while moderately expressed in HepG2 cells. No GPC3 expression is observed in SK-Hep1 cells. Tubulin serves as loading control for either cytosol or membrane fractions loaded.
# Hep3B xenograft = test: In vivo NIR laparoscopic imaging of HCC xenograft tumors; set-up: species or system mice
# Method: Human HCC cells Hep3B and SK-Hep1 were cultured in Eagle's Minimum Essential Medium (EMEM) at 37° C. in 5% CO2, and supplemented with 10% fetal bovine serum (FBS) and 1% penicillin/streptomycin. Western blotting was performed to validate expression level of GPC3. Cells were diluted in growth factor reduced (GFR) Matrigel Matrix (Corning), and injected into one flank of female (to avoid male dominance within a cage) nude athymic mice (nu/nu, Jackson Laboratory) at 4 to 6 weeks of age with weight between 20 to 25 grams. ˜5×10^6 cells were implanted per mouse.
# A standard surgical laparoscope (#49003 AA, HOPKINS® II Straight Forward Telescope 0°, Karl Storz) that is ˜10 mm in diameter and has a 31 cm length rigid sheath was adapted to collect reflectance and fluorescence concurrently. Nude mice with human HCC xenograft 2 weeks post implantation were tail vein injected with 200 μL 300 μM GPC3 peptide ALL*-Cy5.5. During imaging, the mice were anesthetized with inhaled isoflurane. We first used laparoscope with white light illumination to exam the xenograft. Laparoscopic images were taken two hours post injection in both fluorescence and reflection mode simultaneously with excitation solid state diode laser (660-S, Toptica Photonics) to deliver excitation at λex=660 nm into the fiber optic light guide. Images were collected at 5 frames/sec with a laser power of 1.2 mW. Hoechst 33342 (H1399, Life Technologies) at a dose of 10 mg/kg diluted in 200 μL of PBS was delivered intravenously via a tail vein injection to stain the cell nuclei 30 minutes before sacrificing the mouse. Xenograft tumors were resected and confocal fluorescence images were collected with Cy5.5 and DAPI filters 50 μm beneath the surface using a confocal microscope (Leica SPSX Upright 2-Photon Confocal Microscope). Following imaging, resected xenografts were fixed and formalin embedded for immunohistochemistry and H&E staining as described previously.
# Fluorescence images of mouse HCC xenograft taken at 2 hrs post peptide injection were registered with corresponding reflectance images taken simultaneously. The fluorescence intensity of each pixel in the image was divided by intensity of corresponding pixel in the reflectance image in order to account for the difference in distance between each pixel and the laser source. A heat map image was generated from the resulting ratios at each pixel. Image segmentation was performed automatically by custom Matlab (Mathworks) software program using Ostu's Method [Otsu, Automatica, 11(285-296): 23-27 (1975)]. Target to background ratio of each processed image was calculated by dividing the average intensity of pixels inside the segmented tumor and that of those within 30 pixels outside of segmentation outline.
# human HBV-derived HCC = test: Immunofluorescence on human HBV-derived HCC specimens; conditions: 5 μM, 15 min
# Method: Formalin-fixed specimens of HBV-derived HCC from the bio-bank at the Peking University People's Hospital were used. The specimens were deparaffinized, and antigen retrieval was performed using standard methods. Specimens of HCC and non-tumorous liver were cut in 10 μm sections, and incubated with the ALL*-Cy5.5 peptide reagent at a concentration of 5 μM in 1× PBS for 15 min at RT. The sections were washed 3× with PBS and incubated overnight at 4° C. with a 1:1000 dilution of primary anti-GPC3 antibody (Santa Cruz Biotechnology, 1G12, sc-65443) overnight at 4° C. The sections were washed with PBS 3× and incubated with 1:500 dilution of Alexa Fluor 488-labeled secondary goat […] antibody (Invitrogen) for 1 hour at RT. The sections were fixed with 4% PFA for 10 min. The sections were then mounted with ProLong Gold reagent containing DAPI (Invitrogen). Confocal fluorescence images were collected with DAPI, FITC and Cy5.5 filters. A Pearson's correlation coefficient will be measured to assess co-localization of peptide and antibody binding.
# [3] = test system: GPC3 positive tumor (from Hep3B cells); conditions: mouse, in vivo, iv
# Method: (§1) Mice bearing HCC xenograft tumor (arrowheads) were i.v. injected with 250 μL of 300 μM near NIR GPC3 targeting peptide ALL*-Cy5.5, scrambled control peptide QLE*-Cy5.5 and unlabeled Cy5.5 free dye alone. ALL*-Cy5.5 was also injected in mice bearing GPC3 negative tumor (from SK Hep-1 cells, arrows) as control of EPR effect. Pre-injection imaging confirmed no autofluorescence was present.
# [4] = test system: GPC3 positive tumor (from Hep3B cells); test: In vivo whole body fluorescent imaging of HCC xenograft; conditions: 2 hours post injection
# Method: as §1
sequence,measurement,setting,value
ALLANHEELFQT (SEQ ID NO: 1) peptide labeled with Cy5.5 via a GGGSK linker on the C-terminus (ALLANHEELFQTGGGSK-{Cy5.5}) [ALL*-Cy5.5],apparent association time constant k,Hep3B cells [1],0.11 min⁻¹
same,onset of binding,Hep3B cells [1],9.1 min
same,apparent association time constant k,Hep3B cells [1]; FIG. 8B legend,0.11 min⁻¹
same,staining of xenograft sections,SK-Hep1 xenograft tumors,No staining
same,pKd,Hep3B cells [2],7.15
same,intensity difference HepG2 versus SK-Hep1 relative to the same difference for QLE*,"HepG2 human HCC cells; 6 replicates, log-transformed data",3.3 fold
same,fluorescence intensity from binding to cell surface,"HepG2 human HCC cells; HepG2 cells, confocal microscopy",strong fluorescence intensity
same,staining of cell surface on excised tumor xenograft (confocal),Hep3B xenograft; 40× magnification,intense staining
same,T/B ratio relative to QLE*-Cy5.5,"Hep3B xenograft; NIR laparoscope, 2 hours",2.8 fold
same,target-to-background (T/B) ratio,"Hep3B xenograft; NIR laparoscope, 2 hours after i.v. injection, n=8",8.3±1.3
same,binding to section of HBV-derived HCC on immunofluorescence,human HBV-derived HCC,strong binding
same,time of peak uptake/signal post injection,[3],2 h
same,"mean tumor signal vs scrambled peptide, GPC3 negative tumor and free dye",[4],significantly higher
same,target-to-background (T/B) ratio,[4]; mean±SD,3.91±0.58

# — patent US11248022B2, “Glypican-3 peptide reagents and methods” (THE REGENTS OF THE UNIVERSITY OF MICHIGAN, priority 2017, dated 2022)
